Laboratory results: article PMC8831520, “Small molecule SWELL1 complex induction improves glycemic control and nonalcoholic fatty liver disease in murine Type 2 diabetes” (Nature Communications, 2022)
Like-named read-outs stand apart in the source and are kept apart here.

Columns and labels:
[1] = target: T1, ICl,SWELL (SWELL1-LRRC8 channel) in HEK-293 cells (Homo sapiens, UniProt Q8IWT6); assay: ICl,SWELL inhibition after hypotonic activation (open channel), patch-clamp; assay type: cell-based; details: for inhibition of channels first opened by hypotonic activation: 1 μM
T1 construct: applied when the endogenous HEK-293 cell ICl,SWELL current density reached 30 pA/pF; endogenous in cells; host or cells: HEK-293 (ATCC, #CRL-1573)
T1 sequence (Q8IWT6 1-810): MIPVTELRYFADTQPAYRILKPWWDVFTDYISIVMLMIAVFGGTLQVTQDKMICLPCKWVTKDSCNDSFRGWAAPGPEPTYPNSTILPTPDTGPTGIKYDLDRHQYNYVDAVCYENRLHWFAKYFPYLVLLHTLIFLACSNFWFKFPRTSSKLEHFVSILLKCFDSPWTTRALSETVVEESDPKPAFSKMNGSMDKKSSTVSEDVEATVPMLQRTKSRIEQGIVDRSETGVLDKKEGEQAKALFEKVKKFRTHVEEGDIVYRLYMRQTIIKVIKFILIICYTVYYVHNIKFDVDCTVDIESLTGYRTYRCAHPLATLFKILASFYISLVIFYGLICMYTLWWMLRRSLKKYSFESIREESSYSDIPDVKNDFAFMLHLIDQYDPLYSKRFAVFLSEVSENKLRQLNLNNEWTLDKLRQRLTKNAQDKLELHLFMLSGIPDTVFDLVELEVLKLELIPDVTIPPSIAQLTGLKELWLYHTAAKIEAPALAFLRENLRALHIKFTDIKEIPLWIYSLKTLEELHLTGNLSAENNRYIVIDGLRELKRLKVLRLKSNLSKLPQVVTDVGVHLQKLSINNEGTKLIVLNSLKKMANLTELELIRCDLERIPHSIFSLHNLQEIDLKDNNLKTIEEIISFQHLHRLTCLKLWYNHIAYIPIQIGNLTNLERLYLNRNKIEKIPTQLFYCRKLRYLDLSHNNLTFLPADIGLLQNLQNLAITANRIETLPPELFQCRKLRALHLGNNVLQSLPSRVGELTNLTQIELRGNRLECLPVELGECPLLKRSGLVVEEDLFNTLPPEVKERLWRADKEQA
Experimental: Patch-clamp recordings of β-cells, 3T3-F442A adipocytes, and mature human adipocytes were performed as described previously[24],[28]. Briefly, all patch-clamp experiments were conducted at room temperature using either an Axopatch 200B amplifier or a MultiClamp 700B amplifier paired to a Digidata 1550 digitizer. Data were acquired using pClamp 10.4 software. For hypotonic swelling, extracellular solution consisted of the following (in mM): 90 NaCl, 2 CsCl, 1 MgCl2, 1 CaCl2, 10 HEPES, 10 mannitol, pH 7.4 with NaOH (210 mOsm/kg). The isotonic extracellular solution consisted of the same composition above but with 110 mM instead of 10 mM mannitol (300 mOsm/kg). The swell-activated current was elicited by perfusing cells with a hypotonic solution (210 mOsm/kg). […] For perforated-patch recordings in isolated human adipocytes, the intracellular solution was as above but without ATP and GTP, and contained 360 μg/ml Amphotericin B (Sigma). The holding potential was 0 mV. Voltage ramps from −100 to +100 mV (at 0.4 mV/ms) were applied every 4 s. The sampling interval was 100 μs and filtered at 10 kHz. For perforated-patch recordings, cells with a membrane resistance below 1 GΩ or access resistance above 20 MΩ were discarded. […]

[2] = test system: endogenous SWELL1 in 3T3-F442A preadipocytes; assay: SWELL1 plasma membrane localization, immunofluorescence; assay type: cell-based, murine; details: 1 or 10 µM, 48 h, vs vehicle or Inactive 1
Experimental: 3T3-F442A preadipocytes (WT, KO) and differentiated adipocytes without or with SWELL1 overexpression (WT + SWELL1 O/E, KO + SWELL1 O/E) were prepared as described in the Cell culture section on collagen-coated coverslips. […] The cells were fixed in ice-cold acetone for 15 min at −20 °C and then washed four times with 1XPBS. […] Either anti-SWELL1 (1:400) or anti-Flag (1:1500, Sigma #F3165) antibody was added to the cells and incubated overnight at 4 °C. The cells were then washed three times (1XPBS) prior to and after the addition of 1:1000 Alexa Fluor 488/568 secondary antibody (anti-rabbit, #A11034 or anti-mouse, #A11004) for 1 h at RT. Cells were counterstained with nuclear TO-PRO-3 (Life Technologies, #T3605) or DAPI (Invitrogen, #D1306) staining (1 µM) for 20 min followed by three washes with 1XPBS. Coverslips were further mounted on slides with ProLong Diamond anti-fading media. All images were captured using Zeiss LSM700/LSM510 confocal microscope with 63X objective (NA 1.4). SWELL1 membrane localization was quantified by stacking all the z-images and converting it into a binary image where the cytoplasmic intensity per unit area was subtracted from the total cell intensity per unit area using ImageJ software.

T2D and non-T2D mice = assay: Metabolic phenotyping: fasting glucose, GTT, ITT
Experimental: All compounds were dissolved in Kolliphor® EL (Sigma, #C5135).
(§1) Mice were fasted for 6 h prior to glucose tolerance tests (GTT). Baseline glucose levels at 0 min timepoint (fasting glucose, FG) were measured from a blood sample collected from tail snipping using glucometer (Bayer Healthcare LLC). Either 1 or 0.75 g D-Glucose/kg body weight were injected (i.p.) for lean or HFD mice, respectively and glucose levels were measured at 5 or 7, 15, 30, 60, 90, and 120 min timepoints after injection. For insulin tolerance tests (ITTs), the mice were fasted for 4 h. Similar to GTTs, the baseline blood glucose levels were measured at 0 min timepoint and 15, 30, 60, 90, and 120 min timepoints post-injection (i.p.) of insulin (HumulinR, 1 U/kg bodyweight for lean mice or 1.25 U/kg body weight for HFD mice). […] The collected plasma was then measured for insulin content by using Ultra-Sensitive Mouse Insulin ELISA Kit (Crystal Chem, #90080). All mouse studies were performed in a blinded fashion.

[3] = test system: pancreatic islets of T2D mice; assay: Insulin secretion of treated T2D mice (serum insulin, islet perifusion GSIS); assay type: in vivo, mouse
Experimental: as §1

[4] = test system: T2, SWELL1-LRRC8 channels in the closed state, HEK-293 cells; assay: ICl,SWELL inhibition on preincubation before hypotonic activation (closed channel), patch-clamp; assay type: cell-based; details: 1 μM applied 30 min prior to hypotonic activation, vs vehicle or Inactive compounds
T2 construct: applied when the endogenous HEK-293 cell ICl,SWELL current density reached 30 pA/pF; endogenous in cells; host or cells: HEK-293 (ATCC, #CRL-1573)

[5] = HEK-293 cells, hypotonic (210 mOsm) stimulation, outward current, compound applied at 30 pA/pF, read-out: IC50 for ICl,SWELL inhibition
[6] = 12–18 weeks HFD mice, 5 mg/kg/day × 4 days, pre- vs post-treatment

Structure (SMILES) | IC50 [1, 5] [µM] | plasma membrane (PM) localization of endogenous SWELL1 [2] | fasting blood glucose (FG), glucose tolerance (GTT), and insulin tolerance (ITT) (T2D and non-T2D mice; HFD-fed and KKAy T2D mice, 5 mg/kg i.p. 4–10 days) | hypoglycemia in control strain (T2D and non-T2D mice; KKAa parental strain, 5 mg/kg × 4–10 days) | FG, GTT, and ITT compared to vehicle (T2D and non-T2D mice; lean, non-T2D, glucose-tolerant mice) | FG, GTT, and ITT compared to vehicle (T2D and non-T2D mice; same mice after 16 weeks of HFD-feeding, 4 days treatment) | IC50 [1] [µM] | inhibition of channels first opened by hypotonic activation [1] | concentrations required to effectively inhibit channels when first opened by hypotonic activation ([1]; HEK-293 cells) [µM] | impaired GSIS (serum insulin, islet perifusion) ([3]; HFD mice, 21 weeks HFD) | subsequent hypotonic activation of ICl,SWELL [4] | fasting blood glucose (T2D and non-T2D mice; [6]) | glucose tolerance (T2D and non-T2D mice; [6]) | insulin sensitivity based on HOMA-IR (T2D and non-T2D mice; HFD-T2D mice, compared to Inactive 1) | glucose tolerance (T2D and non-T2D mice; HFD-T2D mice, separate experiment, compared to Inactive 1) | ICl,SWELL inhibitory activity compared to SN-401 ([1]; HEK-293 cells) | insulin secretion in perifusion GSIS ([3]; islets of HFD-T2D mice, compared to Inactive 1)
CCCCC1(C2CCCC2)Cc2cc(OCC(=O)O)c(Cl)c(Cl)c2C1=O (stereo not shown) [Inactive 1, 2-((2-butyl-6,7-dichloro-2-cyclopentyl-1-oxo-2,3-dihydro-1H-inden-5-yl)oxy)acetic acid] | 35.5 | – | – | – | – | – | – | – | – | – | – | – | – | – | – | – | –
CCCCC1(C2CCCC2)Cc2cc(OCCCC(=O)O)c(Cl)c(Cl)c2C1=O (stereo not shown) [SN-401, 4-((2-butyl-6,7-dichloro-2-cyclopentyl-1-oxo-2,3-dihydro-1H-inden-5-yl)oxy)butanoic acid] | – | enhanced | improved | does not cause hypoglycemia | similar | marked improvements | 3.9 | relatively ineffective | 6 to 10 | significantly improved | markedly suppressed and delayed | – | – | – | – | – | –
CCCCC1(C2CCCC2)Cc2cc(OCCCCCC(=O)O)c(Cl)c(Cl)c2C1=O (stereo not shown) [SN-406, 6-((2-butyl-6,7-dichloro-2-cyclopentyl-1-oxo-2,3-dihydro-1H-inden-5-yl)oxy)hexanoic acid] | 3.1 | enhanced | – | – | – | – | – | relatively ineffective | 6 to 10 | – | markedly suppressed and delayed | markedly reduced | improved | trend toward improved insulin sensitivity | significantly improved | increased ICl,SWELL inhibitory activity | significantly augmented
